Here are results for 1 molecule from US4419352A, “Pyranoquinolinones and analogs thereof” (Fisons Limited, priority 1978, dated 1983).

In series [1] the test system is human volunteer suffering from specific allergic asthma. The series can be described thus: antigen inhalation provocation test (F E V1.0, percent protection). The series is classed as in vivo. The conditions noted are these: F E V1.0, after drug administration. Here is the method: Clinical evaluation of the compounds was carried out using the antigen inhalation provocation test described below:
The human volunteer selected for test purposes suffered from specific allergic asthma. In this subject an asthma attack normally followed the inhalation of an antigen to which they were specifically sensitive. The degree of asthma provoked by this method can be measured by repeated examination of the air way resistance.
The antiallergic activity of a compound is estimated from the difference between the maximum percent F E V1.0 reduction following control and test provocations after drug administration conducted under identical experimental conditions.
The results of the tests are expressed as percent protection according to the formula: [formula]

In the next series the test system is anaesthatised cats. The series can be described thus: blood pressure, heart rate and cardiac output of anaesthetised cats. It counts as in vivo, cat.
Series [2] relates to cardiovascular response to isoprenaline. The series can be described thus: cardiovascular response to isoprenaline in the cat. It counts as in vivo.
Series [3] shares this test system. The series can be described thus: cardiovascular response to isoprenaline in the rat. It counts as in vivo.
For the next series, the system named is rats. Put plainly: food choice (revulsion) test in rats. The series is classed as in vivo, rat.
Series [4] can be described thus: sub-cutaneous LD50 in mice. The conditions noted are these: mouse, in vivo, sc.
A short description of series [5]: sub-cutaneous LD50 in rats. The conditions noted are these: rat, in vivo, sc.

What is called LD50 is the dose at which mortality reaches 50%.

`CCCc1c2nc(C(=O)[O-])cc(Cl)c2cc2c(=O)cc(C(=O)[O-])oc12.[Na+].[Na+]`: the “protection against asthma provoked by antigen inhalation” value in series [1] is “very considerable protection”. Besides, in the series on anaesthatised cats, the “effect on blood pressure” value is “without effect”, the “effect on cardiac output” value is reported as “without effect” and the “effect on heart rate” value is on record as “without effect”. Further, the “alteration of cardiovascular response to isoprenaline” value in series [2] is recorded as “did not alter”. Besides, the “alteration of cardiovascular response to isoprenaline” value in series [3] is on record as “did not alter”. Also, the “revulsion when rats choose between food source containing it and one which does not” value with rats is listed as “does not produce revulsion”. In series [4], this molecule yielded an LD50 above 2000 mg/kg. The LD50 in series [5] was above 2000 mg/kg.
